Source: US11117947B2, “Double-acylated GLP-1 derivatives” (Novo Nordisk A/S, priority 2011, dated 2021)
Numbered stars: 1 amine (or outer) side, 2 acyl side, 3 side chain; on linkers, the order of the positions; unused ones are H or OH. Side chains are listed from the residue outwards. Peptide text beside a SMILES is read from it. * marks the point of attachment. Decanoyl(10-(4-HOOC-PhO)) = O=C(O)c1ccc(OCCCCCCCCCC(=O)*)cc1; γGlu = O=C(O)[C@H](CCC(=O)[*:2])N[*:1]; C14 diacid = O=C(O)CCCCCCCCCCCCC(=O)*; AEEA = NCCOCCOCC(=O)O

Assay: Estimate of oral bioavailability: gut injection in rat (caprate), exposure in plasma
Assay type: in vivo
Conditions: injection in jejunum, 1000 uM in 55 mg/ml sodium caprate, plasma concentration (pM) at 30 min divided by dosing solution concentration (μM), mean n=4
Procedure: The GLP-1 derivatives were tested in a concentration of 1000 uM in a solution of 55 mg/ml sodium caprate.
Male Sprague Dawley rats with a body weight upon arrival of approximately 240 g were obtained from Taconic (Denmark) and assigned to the different treatments by simple randomisation, 4 rats per group.
The GLP-1 derivatives were administered in the jejunum either in the proximal part (10 cm distal for the duodenum) or in the mid-intestine (50 cm proximal for the cecum). A PE50-catheter, 10 cm long was inserted into the jejunum, forwarded at least 1.5 cm into the jejunum, and secured before dosing by ligature around the gut and the catheter with 3/0 suture distal to tip to prevent leak or catheter displacement. Catheter was placed without syringe and needle and 2 ml saline was administered into abdomen before closing the incision with wound clips.
100 μl of the respective GLP-1 derivative was injected into the jejunal lumen through the catheter with a 1 ml syringe. Subsequently, 200 μl of air was pushed into the jejunal lumen with another syringe to “flush” the catheter. This syringe was leaved connected to the catheter to prevent flow back into the catheter.
Blood samples (200 ul) were collected at desired intervals (usually at times 0, 10, 30, 60, 120 and 240 min) into EDTA tubes from the tail vein and centrifuged 5 minutes, 10000G, at 4° C. within 20 minutes. […] 12, p. 240-247. The donor beads were coated with streptavidin, while acceptor beads were conjugated with a monoclonal antibody recognising a mid-/C-terminal epitope of the peptide. Another monoclonal antibody, specific for the N-terminus, was biotinylated. The three reactants were combined with the analyte and formed a two-sited immuno-complex. Illumination of the complex released singlet oxygen atoms from the donor beads, which were channeled into the acceptor beads and triggered chemiluminescence which was measured in an Envision plate reader. The amount of light was proportional to the concentration of the compound.
After the blood sampling the rats were sacrificed under anaesthesia and the abdomen was opened to verify correct catheter placement.
The mean (n=4) plasma concentrations (pmol/l) were determined as a function of time.

SMILES | Dose-corrected exposure at 30 min
CC[C@H](C)[C@H](NC(=O)[C@H](Cc1ccccc1)NC(=O)[C@H](CCCCNC(=O)COCCOCCNC(=O)COCCOCCNC(=O)CC[C@H](NC(=O)CCCCCCCCCCCCC(=O)O)C(=O)O)NC(=O)[C@H](CCCNC(=N)N)NC(=O)[C@@H](NC(=O)[C@H](C)NC(=O)[C@H](CCC(N)=O)NC(=O)[C@H](CCCCNC(=O)COCCOCCNC(=O)COCCOCCNC(=O)CC[C@H](NC(=O)CCCCCCCCCCCCC(=O)O)C(=O)O)NC(=O)[C@H](CCC(=O)O)NC(=O)[C@H](CC(C)C)NC(=O)[C@H](Cc1ccc(O)cc1)NC(=O)[C@H](CO)NC(=O)[C@H](CO)NC(=O)[C@@H](NC(=O)[C@H](CC(=O)O)NC(=O)[C@H](CO)NC(=O)[C@@H](NC(=O)[C@H](Cc1ccccc1)NC(=O)[C@@H](NC(=O)CNC(=O)[C@H](CCC(=O)O)NC(=O)[C@H](C)NC(=O)[C@@H](N)Cc1c[nH]cn1)[C@@H](C)O)[C@@H](C)O)C(C)C)C(C)C)C(=O)N[C@@H](CCC(=O)O)C(=O)N[C@@H](Cc1c[nH]c2ccccc12)C(=O)N[C@@H](CC(C)C)C(=O)N[C@H](C(=O)N[C@@H](CCC(N)=O)C(=O)NCC(=O)N[C@@H](CCCNC(=N)N)C(=O)NCC(=O)O)C(C)C [Example 11, N^ε22-[2-[2-[2-[[2-[2-[2-[[(4S)-4-carboxy-4-(13-carboxytridecanoylamino)butanoyl]amino]ethoxy]ethoxy]acetyl]amino]ethoxy]ethoxy]acetyl], N^ε27-[2-[2-[2-[[2-[2-[2-[[(4S)-4-carboxy-4-(13-carboxytridecanoylamino)butanoyl]amino]ethoxy]ethoxy]acetyl]amino]ethoxy]ethoxy]acetyl]-[Lys^22,Val^25,Arg^26,Lys^27,Glu^30,Gln^34]-GLP-1-(7-37)-peptide] (H-HAEGTFTSDVSSYLEK([AEEA-AEEA-γGlu-C14 diacid])QAVRK([AEEA-AEEA-γGlu-C14 diacid])FIEWLVQGRG-OH; N-terminus and C-terminus assumed) | 66
CC[C@H](C)[C@H](NC(=O)[C@H](Cc1ccccc1)NC(=O)[C@H](CCCCNC(=O)CC[C@H](NC(=O)COCCOCCNC(=O)COCCOCCNC(=O)CCCCCCCCCCCCC(=O)O)C(=O)O)NC(=O)[C@H](CCCNC(=N)N)NC(=O)[C@H](C)NC(=O)[C@H](CCCCNC(=O)CC[C@H](NC(=O)COCCOCCNC(=O)COCCOCCNC(=O)CCCCCCCCCCCCC(=O)O)C(=O)O)NC(=O)[C@H](CCC(N)=O)NC(=O)[C@H](CCC(=O)O)NC(=O)[C@H](CCC(=O)O)NC(=O)[C@H](CC(C)C)NC(=O)[C@H](Cc1ccc(O)cc1)NC(=O)[C@H](CO)NC(=O)[C@H](CO)NC(=O)[C@@H](NC(=O)[C@H](CC(=O)O)NC(=O)[C@H](CO)NC(=O)[C@@H](NC(=O)[C@H](Cc1ccccc1)NC(=O)[C@@H](NC(=O)CNC(=O)[C@H](CCC(=O)O)NC(=O)[C@H](C)NC(=O)[C@@H](N)Cc1c[nH]cn1)[C@@H](C)O)[C@@H](C)O)C(C)C)C(=O)N[C@@H](C)C(=O)N[C@@H](Cc1c[nH]cn1)C(=O)N[C@@H](CC(C)C)C(=O)N[C@H](C(=O)NCC(=O)O)C(C)C [Example 22, N^ε24-[(4S)-4-carboxy-4-[[2-[2-[2-[[2-[2-[2-(13-carboxytridecanoylamino)ethoxy]ethoxy]acetyl]amino]ethoxy]ethoxy]acetyl]amino]butanoyl], N^ε27-[(4S)-4-carboxy-4-[[2-[2-[2-[[2-[2-[2-(13-carboxytridecanoylamino)ethoxy]ethoxy]acetyl]amino]ethoxy]ethoxy]acetyl]amino]butanoyl]-[Glu^22,Lys^24,Arg^26,Lys^27,His^31,Gly^34]-GLP-1-(7-34)-peptide] (H-HAEGTFTSDVSSYLEEQK([γGlu-AEEA-AEEA-C14 diacid])ARK([γGlu-AEEA-AEEA-C14 diacid])FIAHLVG-OH) | 275
CC[C@H](C)[C@H](NC(=O)[C@H](Cc1ccccc1)NC(=O)[C@H](CCCCNC(=O)COCCOCCNC(=O)COCCOCCNC(=O)CC[C@H](NC(=O)CCCCCCCCCOc1ccc(C(=O)O)cc1)C(=O)O)NC(=O)[C@H](CCCNC(=N)N)NC(=O)[C@@H](NC(=O)[C@H](C)NC(=O)[C@H](CCC(N)=O)NC(=O)CNC(=O)[C@H](CCC(=O)O)NC(=O)[C@H](CC(C)C)NC(=O)[C@H](Cc1ccc(O)cc1)NC(=O)[C@H](CO)NC(=O)[C@H](CO)NC(=O)[C@@H](NC(=O)[C@H](CC(=O)O)NC(=O)[C@H](CO)NC(=O)[C@@H](NC(=O)[C@H](Cc1ccccc1)NC(=O)[C@@H](NC(=O)CNC(=O)[C@H](CCC(=O)O)NC(=O)[C@H](C)NC(=O)[C@@H](N)Cc1c[nH]cn1)[C@@H](C)O)[C@@H](C)O)C(C)C)C(C)C)C(=O)N[C@@H](CCC(=O)O)C(=O)N[C@@H](Cc1c[nH]c2ccccc12)C(=O)N[C@@H](CC(C)C)C(=O)N[C@H](C(=O)N[C@@H](CCC(N)=O)C(=O)NCC(=O)N[C@@H](CCCCNC(=O)COCCOCCNC(=O)COCCOCCNC(=O)CC[C@H](NC(=O)CCCCCCCCCOc1ccc(C(=O)O)cc1)C(=O)O)C(=O)NCC(=O)N[C@@H](CCC(=O)O)C(=O)O)C(C)C [Example 13, N^ε27-[2-[2-[2-[[2-[2-[2-[[(4S)-4-carboxy-4-[10-(4-carboxyphenoxy)decanoylamino]butanoyl]amino]ethoxy]ethoxy]acetyl]amino]ethoxy]ethoxy]acetyl], N^ε36-[2-[2-[2-[[2-[2-[2-[[(4S)-4-carboxy-4-[10-(4-carboxyphenoxy)decanoylamino]butanoyl]amino]ethoxy]ethoxy]acetyl]amino]ethoxy]ethoxy]acetyl]-[Val^25,Arg^26,Lys^27,Glu^30,Gln^34,Lys^36]-GLP-1-(7-37)-peptidyl-Glu] (H-HAEGTFTSDVSSYLEGQAVRK([AEEA-AEEA-γGlu-Decanoyl(10-(4-HOOC-PhO))])FIEWLVQGK([AEEA-AEEA-γGlu-Decanoyl(10-(4-HOOC-PhO))])GE-OH; N-terminus and C-terminus assumed) | 126
